Series [1] in a line: Cytotoxicity against human K562 cells assessed as decrease in cell survival rate incubated for 72 hrs by MTS assay. It counts as toxicity, cell-based.
Series [2] in a line: Cytotoxicity against human K562/A02 cells overexpressing ABCB1 assessed as decrease in cell survival rate incubated for 72 hrs by MTS assay. Type of series: toxicity, cell-based. For orientation: Formazan colour is commonly taken as a measure of viable cells.
The subject of series [3] is K562/A02. The experiment in a line: Reversal of ABCB1 mediated adriamycin resistance in human K562/A02 overexpressing ABCB1 assessed as decrease in survival rate at 1.25 to 5 uM preincubated for 1 hrs followed by adriamycin addition and measured after 72 hrs by MTS assay. It counts as functional, cell-based. Conditions: dose 1.25-5 µM, time 73.0 hrs.
For series [4], the system named is K562. The series is described as follows: Reversal of ABCB1 mediated adriamycin resistance in human K562 assessed as decrease in survival rate at 1.25 to 5 uM preincubated for 1 hrs followed by adriamycin addition and measured after 72 hrs by MTS assay. Type of series: functional, cell-based. As to conditions: dose 1.25-5 µM, time 73.0 hrs.

Results on 37 compounds are retold here after ChEMBL document CHEMBL5380807, “Imidazo[1,2-a]Pyridine Derivatives as Novel Dual-Target Inhibitors of ABCB1 and ABCG2 for Reversing Multidrug Resistance” (J Med Chem, 2023).

The structures appear in SMILES notation. Calls of active or inactive are those of the source. The rule behind the calls is not given here.

`O=C(Cn1cnnc1)Nc1ccc(-c2nc3ccccn3c2CN2CCN(c3ccccc3)CC2)cc1`: the half-inhibitory concentration (IC50) at 72 h in series [1] and in series [2] was greater than 100 µM in each case.
Consider `COc1cc2c(cc1OC)CN(Cc1c(-c3ccc(NC(=O)COc4ccccc4)cc3)nc3ccccn13)CC2`, for which the IC50 at 72 h in series [1] and in series [2] was greater than 100 µM throughout. The result in series [3] was Active. The outcome in series [4] was inactive.
Regarding `COc1cc2c(cc1OC)CN(Cc1c(-c3ccc(NC(=O)COc4ccc(C)cc4)cc3)nc3ccccn13)CC2`, the IC50 at 72 h in series [1] and in series [2] was greater than 100 µM each time. Further, the result in series [3] was Active. Further, in series [4], the result was inactive.
Consider `COc1cc2c(cc1OC)CN(Cc1c(-c3ccc(NC(=O)CN4CCOCC4)cc3)nc3ccccn13)CC2`, for which the half-maximal inhibitory concentration (IC50) at 72 h in series [1] and in series [2] was greater than 100 µM each time.
As for `COc1cc2c(cc1OC)CN(Cc1c(-c3ccc(NC(=O)COc4ccccc4C)cc3)nc3ccccn13)CC2`, the IC50 at 72 h in series [1] and in series [2] was greater than 100 µM in each case. The outcome in series [3] was Active. Further, in series [4], the result was inactive.
As for `O=C(CN1CCOCC1)Nc1ccc(-c2nc3ccccn3c2CN2CCN(c3ccccc3)CC2)cc1`, the IC50 at 72 h in series [1] and in series [2] was greater than 100 µM in each case.
As to `O=C(/C=C/c1ccccc1)Nc1ccc(-c2nc3ccccn3c2CN2CCN(c3ccccc3)CC2)cc1`, the 50% inhibitory concentration (IC50) at 72 h in series [1] and in series [2] was greater than 100 µM throughout.
With `Cc1cccc(/C=C/C(=O)Nc2ccc(-c3nc4ccccn4c3CN3CCN(c4ccccc4)CC3)cc2)c1`, the IC50 at 72 h in series [1] and in series [2] was greater than 100 µM in each case.
As for `COc1cc2c(cc1OC)CN(Cc1c(-c3ccc(NC(=O)/C=C/c4cc(OC)c(OC)c(OC)c4)cc3)nc3ccccn13)CC2`, the half-inhibitory concentration (IC50) at 72 h in series [1] and in series [2] was greater than 100 µM each time.
`O=C(CCn1cnnc1)Nc1ccc(-c2nc3ccccn3c2CN2CCN(c3ccccc3)CC2)cc1`: the half-maximal inhibitory concentration (IC50) at 72 h in series [1] and in series [2] was greater than 100 µM throughout.
`O=C(CCN1CCN(c2ccccc2)CC1)Nc1ccc(-c2nc3ccccn3c2CN2CCN(c3ccccc3)CC2)cc1`: the IC50 (in general, the concentration at which inhibition is half-maximal) at 72 h was 58.8 µM in series [1] and 22.9 µM in series [2]. Moreover, the outcome in series [3] was Active. In addition, the outcome in series [4] was inactive.
For `COc1ccc(OCC(=O)Nc2ccc(-c3nc4ccccn4c3CN3CCc4cc(OC)c(OC)cc4C3)cc2)cc1`, the 50% inhibitory concentration (IC50) at 72 h in series [1] and in series [2] was greater than 100 µM each time.
Regarding `COc1cc2c(cc1OC)CN(Cc1c(-c3ccc(NC(=O)COc4cccc([N+](=O)[O-])c4)cc3)nc3ccccn13)CC2`, the half-inhibitory concentration (IC50) at 72 h in series [1] and in series [2] was greater than 100 µM throughout.
With `CCN(CC)CC(=O)Nc1ccc(-c2nc3ccccn3c2CN2CCc3cc(OC)c(OC)cc3C2)cc1`, the IC50 at 72 h in series [1] and in series [2] was greater than 100 µM each time.
Turning to `O=C(CCCN1CCN(c2ccccc2)CC1)Nc1ccc(-c2nc3ccccn3c2CN2CCN(c3ccccc3)CC2)cc1`, the values for the 50% inhibitory concentration (IC50) at 72 h in series [1] and in series [2] were 3.72 µM and 7.07 µM, respectively. The result in series [3] and in series [4] was Active.
As to `COc1cc2c(cc1OC)CN(CCC(=O)Nc1ccc(-c3nc4ccccn4c3CN3CCN(c4ccccc4)CC3)cc1)CC2`, the IC50 at 72 h in series [1] is 3.31 µM; in series [2] it was 13.6 µM. The result in series [3] and in series [4] was Active.
Turning to `COc1cc2c(cc1OC)CN(Cc1c(-c3ccc(NC(=O)COc4cccc5cccnc45)cc3)nc3ccccn13)CC2`, the half-inhibitory concentration (IC50) at 72 h in series [1] and in series [2] was greater than 100 µM each time.
For `O=C(CNCc1ccccc1)Nc1ccc(-c2nc3ccccn3c2CN2CCN(c3ccccc3)CC2)cc1`, the IC50 at 72 h is 25.8 µM in series [1] and 28.8 µM in series [2]. Besides, the result in series [3] was Active. The outcome in series [4] was inactive.
Consider `COc1cc2c(cc1OC)CN(Cc1c(-c3ccc(NC(=O)COc4ccccc4Br)cc3)nc3ccccn13)CC2`, for which the half-inhibitory concentration (IC50) at 72 h in series [1] and in series [2] was greater than 100 µM in each case.
As for `COc1cc2c(cc1OC)CN(Cc1c(-c3ccc(NC(=O)CCN4CCN(c5ccccc5)CC4)cc3)nc3ccccn13)CC2`, the IC50 at 72 h was determined as 93.1 µM in series [1] and 30.6 µM in series [2].
For `O=C(/C=C/c1ccc([N+](=O)[O-])cc1)Nc1ccc(-c2nc3ccccn3c2CN2CCN(c3ccccc3)CC2)cc1`, in that order: 10.7 µM and 48.7 µM.
For `O=C1CCCN1c1ccc(-c2nc3ccccn3c2CN2CCN(c3ccccc3)CC2)cc1`, in that order: greater than 100 µM and greater than 100 µM.
For `Cc1ccc(/C=C/C(=O)Nc2ccc(-c3nc4ccccn4c3CN3CCN(c4ccccc4)CC3)cc2)cc1`, in that order: 32.8 µM and greater than 100 µM.
Consider `O=C(/C=C/c1ccc(Cl)cc1)Nc1ccc(-c2nc3ccccn3c2CN2CCN(c3ccccc3)CC2)cc1`, for which the IC50 at 72 h in series [1] and in series [2] was greater than 100 µM each time.
`COc1cc2c(cc1OC)CN(Cc1c(-c3ccc(NC(=O)CN4CCN(c5ccc(OC(F)(F)F)cc5)CC4)cc3)nc3ccccn13)CC2`: the IC50 at 72 h in series [1] was 83.7 µM; in series [2] it was 81.2 µM.
The corresponding values for `C=CCc1ccc(OCC(=O)Nc2ccc(-c3nc4ccccn4c3CN3CCc4cc(OC)c(OC)cc4C3)cc2)c(OC)c1` are greater than 100 µM and greater than 100 µM.
For `COc1cc2c(cc1OC)CN(Cc1c(-c3ccc(NC(=O)CN(C)C)cc3)nc3ccccn13)CC2`, in that order: greater than 100 µM and greater than 100 µM.
The corresponding values for `COc1cc2c(cc1OC)CN(Cc1c(-c3ccc(NC(=O)CN4CCN(c5ccccc5)CC4)cc3)nc3ccccn13)CC2` are greater than 100 µM and greater than 100 µM.
For the compound `CN(C)CC(=O)Nc1ccc(-c2nc3ccccn3c2CN2CCN(c3ccccc3)CC2)cc1`, the IC50 at 72 h came out at 25.2 µM in series [1] and 51.2 µM in series [2].
The corresponding values for `CN1CCN(CC(=O)Nc2ccc(-c3nc4ccccn4c3CN3CCN(c4ccccc4)CC3)cc2)CC1` are 21.4 µM and 54.6 µM.
For `COc1cc2c(cc1OC)CN(Cc1c(-c3ccc(NC(=O)COc4ccc(OC(F)(F)F)cc4)cc3)nc3ccccn13)CC2`, in that order: 29.9 µM and 40.9 µM.
The corresponding values for `COc1cc2c(cc1OC)CN(Cc1c(-c3ccc(NC(=O)Cn4cnnc4)cc3)nc3ccccn13)CC2` are greater than 100 µM and greater than 100 µM.
For the compound `CCN(CC)CC(=O)Nc1ccc(-c2nc3ccccn3c2CN2CCN(c3ccccc3)CC2)cc1`, the half-maximal inhibitory concentration (IC50) at 72 h in series [1] amounted to 24.3 µM; in series [2], 40 µM.
Take `COc1cc2c(cc1OC)CN(Cc1c(-c3ccc(NC(=O)CN4CCN(C)CC4)cc3)nc3ccccn13)CC2`: the values for the concentration for half-maximal inhibition (IC50) at 72 h in series [1] and in series [2] were 50.7 µM and greater than 100 µM, respectively.
For `O=C(CN1CCN(c2ccccc2)CC1)Nc1ccc(-c2nc3ccccn3c2CN2CCN(c3ccccc3)CC2)cc1`, in that order: greater than 100 µM and greater than 100 µM.
The corresponding values for `O=C1CCN1c1ccc(-c2nc3ccccn3c2CN2CCN(c3ccccc3)CC2)cc1` are 10.5 µM and 45.5 µM.
For `COc1cccc(OCC(=O)Nc2ccc(-c3nc4ccccn4c3CN3CCc4cc(OC)c(OC)cc4C3)cc2)c1`, in that order: greater than 100 µM and greater than 100 µM.
